Where “and” joins values, the source holds several entries; their conditions need not be identical. Identical values can stand only once.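 Values below derive from 48-hour exposures of cells grown in 96-well plates, with endpoints linearly interpolated between the two concentrations bracketing the appropriate inhibition level. The concentration for 50% growth inhibition is given as GI50. TGI: concentration producing complete growth inhibition.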
Columns and labels:
Experiment in all cases: inhibition of tumour cell growth, NCI panel, 48 h
RXF 393 renal = tested on: RXF 393 renal
MCF7 breast = tested on: MCF7 breast
M14 melanoma = tested on: M14 melanoma
UO-31 renal = tested on: UO-31 renal
U251 CNS = tested on: U251 CNS
SF-539 CNS = tested on: SF-539 CNS
A549 NSCLC = tested on: A549 NSCLC
HCT-15 colon = tested on: HCT-15 colon
A498 renal = tested on: A498 renal
SK-MEL-2 melanoma = tested on: SK-MEL-2 melanoma

SMILES	GI50 (RXF 393 renal)	TGI (RXF 393 renal)	GI50 (MCF7 breast)	TGI (MCF7 breast)	GI50 (M14 melanoma)	TGI (M14 melanoma)	GI50 (UO-31 renal)	TGI (UO-31 renal)	GI50 (U251 CNS)	TGI (U251 CNS)	GI50 (SF-539 CNS)	TGI (SF-539 CNS)	GI50 (A549 NSCLC)	TGI (A549 NSCLC)	GI50 (HCT-15 colon)	TGI (HCT-15 colon)	GI50 (A498 renal)	TGI (A498 renal)	GI50 (SK-MEL-2 melanoma)	TGI (SK-MEL-2 melanoma)
CCc1cccc(NC(=O)Nc2ccc(Oc3ccc4nc(NC(=O)OC)[nH]c4c3)cc2)c1	2.05 µM	10.9 µM	0.654 µM	> 6.24 µM	3.13 µM	12.6 µM	> 25 µM	> 25 µM	4.85 µM	> 15.4 µM	5.08 µM	> 25 µM	5.35 µM	> 15.3 µM	2.93 µM	> 25 µM	3.2 µM	17.8 µM	2.94 µM	12.3 µM
Fc1ccc(-c2ncn(CCCN3CCOCC3)c2-c2ccncc2)cc1	> 25 µM	> 25 µM	> 25 µM	> 25 µM	> 25 µM	> 25 µM	> 25 µM	> 25 µM	> 25 µM	> 25 µM	> 25 µM	> 25 µM	> 25 µM	> 25 µM	> 25 µM	> 25 µM	> 25 µM	> 25 µM	> 25 µM	> 25 µM
Cc1ccc(-c2nc(/C=N/Nc3cc(C)nc4ccc(Br)cc34)c(C)o2)cc1	1.65 µM	3.22 µM	1.92 µM	3.99 µM	1.89 µM	3.63 µM	1.65 µM	3.08 µM	1.84 µM	3.45 µM	1.72 µM	3.18 µM	1.82 µM	3.52 µM	1.86 µM	3.64 µM	3.73 µM	20.4 µM	19.7 µM	41.2 µM
CC(C)=Cc1cccc2[nH]c(O)c(N=Nc3ccc(S(N)(=O)=O)cc3)c12	0.987 µM	> 19.4 µM	1.04 µM	> 25 µM	> 25 µM	> 25 µM	> 25 µM	> 25 µM	4.24 µM	> 25 µM	2.72 µM	> 20.1 µM	4.1 µM	> 25 µM	4.32 µM	> 25 µM	> 25 µM	> 25 µM	> 25 µM	> 25 µM
COc1ccccc1NC(=O)CC(=O)n1nc(C)c(N=Nc2ccccc2Cl)c1C	–	> 100 µM	–	> 100 µM	–	> 100 µM	–	> 100 µM	–	> 44.2 µM	–	> 100 µM	–	> 100 µM	–	> 100 µM	–	> 100 µM	–	> 100 µM
CCN(CCO)CCCC(C)Nc1ccnc2cc(Cl)ccc12 (stereo unspecified)	73.8 µM	> 100 µM	> 100 µM	> 100 µM	> 100 µM	> 100 µM	> 100 µM	> 100 µM	> 100 µM	> 100 µM	8.63 µM	> 100 µM	> 100 µM	> 100 µM	> 100 µM	> 100 µM	> 100 µM	> 100 µM	> 100 µM	> 100 µM
CN[C@@H](Cc1cccc2ccccc12)C(=O)N[C@@H](CC(C)C)B(O)O	0.018 µM	0.0353 µM	0.00637 µM	–	–	0.145 µM	0.0179 µM	0.059 µM and < 0.0131 µM	0.0303 µM	0.119 µM and 0.0438 µM	0.00473 µM	0.0167 µM	0.0465 µM	–	0.0172 µM	0.0459 µM and 0.406 µM	0.00553 µM	0.0452 µM	0.0237 µM	0.0599 µM and 0.104 µM
COc1cc(NS(C)(=O)=O)ccc1Cc1c2ccccc2nc2ccccc12	0.396 µM	2.06 µM	0.0517 µM	5 µM	0.158 µM	1.43 µM	0.126 µM	1.02 µM	0.136 µM	1.21 µM	0.118 µM	1.15 µM	0.0164 µM	1.06 µM	0.371 µM	2.76 µM	0.135 µM	1.15 µM	1.43 µM	3.2 µM
COc1cc2c(cc1O)c(=O)n(CCN(C)C)c1c3cc4c(cc3ncc21)OCO4	0.0318 µM	0.116 µM	< 0.01 µM	1.62 µM	< 0.01 µM	0.0535 µM	< 0.0124 µM	0.17 µM	< 0.01 µM	0.0426 µM	< 0.01 µM	0.0223 µM	0.0356 µM	0.594 µM	0.0284 µM	–	0.0234 µM	0.0882 µM	0.136 µM	0.36 µM
Cc1ccc2[nH]c(O)c(N=Nc3ccccc3[N+](=O)[O-])c2c1	–	20.8 µM	–	> 100 µM	–	> 100 µM	–	9.3 µM	–	18.6 µM	–	4.78 µM	–	> 100 µM	–	> 100 µM	–	34.6 µM	–	> 100 µM
O=C(Nc1n[nH]c2nc(-c3ccc(O)cc3)c(Br)cc12)C1CC1	1.18 µM	5.02 µM	1.05 µM	10.2 µM	3.97 µM	11.3 µM	3.93 µM	15.3 µM	4.39 µM	> 20.2 µM	1.34 µM	6.27 µM	4.98 µM	> 21.7 µM	3.77 µM	> 23.2 µM	4.65 µM	14.4 µM	3.07 µM	7.17 µM
CN(/N=C/c1ccccc1O)c1ccc2ccccc2n1	–	90 µM	–	30.9 µM	–	> 100 µM	–	35.2 µM	–	29.8 µM	–	37.1 µM	–	29.8 µM	–	> 100 µM	–	38.8 µM	–	> 100 µM
COc1ccc(C2CC(c3ccc(OC)cc3O)=NN2c2ccc(S(N)(=O)=O)cc2)cc1 (stereo unspecified)	25.6 µM	> 100 µM	4.11 µM	> 100 µM	4.54 µM	25.9 µM	2.99 µM	> 100 µM	6.42 µM	> 100 µM	30.2 µM	> 100 µM	6.36 µM	> 100 µM	5.98 µM	> 100 µM	13.1 µM	80.2 µM	17.1 µM	85.9 µM
O=C1/C(=C/c2ccc(F)cc2)CN(C(=O)C(Cl)Cl)C/C1=C\c1ccc(F)cc1	0.445 µM	0.968 µM	0.112 µM	1.09 µM	0.249 µM	0.758 µM	0.163 µM	0.327 µM	0.106 µM	0.335 µM	0.269 µM	0.791 µM	0.324 µM	1.38 µM	0.145 µM	0.682 µM	0.404 µM	1.54 µM	0.94 µM	2.9 µM
